Tests used:
Assay in all cases: relative viability (nuclei count vs DMSO), 5 days (fraction); higher = more cells survive
[1] = system: NCI-H1915
Procedure, shortened: (§1)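 Lung cancer cell lines were seeded in 1536-well plates and dosed by pin tool the next day, with either a single drug or a fixed anchor-drug dose combined with five library-drug doses (not always all listed) spaced in √10 steps. Five days later, one step fixed the cells and stained their nuclei (final 0.05% Triton X-100, 1% formaldehyde, 1 ug/ml Hoechst), and nuclei were counted on 4× images. Relative viability is the nuclei count in treated wells divided by the count in vehicle wells, and each value is the median of duplicate plates.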

[2] = system: NCI-H23
Procedure, shortened: as §1

[3] = system: NCI-H2228
Procedure, shortened: as §1

[4] = system: NCI-H460
Procedure, shortened: as §1

[5] = system: CAL-12T
Procedure, shortened: as §1

[6] = system: SK-LU-1
Procedure, shortened: as §1

[7] = system: EMC-BAC-2
Procedure, shortened: as §1

[8] = system: NCI-H1437
Procedure, shortened: as §1

[9] = system: NCI-H1792
Procedure, shortened: as §1

[10] = system: HCC-827
Procedure, shortened: as §1

[11] = system: NCI-H1975
Procedure, shortened: as §1

[12] = system: NCI-H1755
Procedure, shortened: as §1

[13] = system: SW 1573
Procedure, shortened: as §1

[14] = system: NCI-H727
Procedure, shortened: as §1

[15] = system: HOP-62
Procedure, shortened: as §1

[16] = system: NCI-H2009
Procedure, shortened: as §1

[17] = system: HCC-366
Procedure, shortened: as §1

[18] = system: NCI-H1355
Procedure, shortened: as §1

[19] = system: COR-L 105
Procedure, shortened: as §1

[20] = system: HARA
Procedure, shortened: as §1

[21] = system: A-427
Procedure, shortened: as §1

[22] = system: NCI-H1395
Procedure, shortened: as §1

C=C1C(=O)O[C@@H](CCCCCCCC)[C@@H]1C(=O)O [C-75] + CS(=O)(=O)CCNCc1ccc(-c2ccc3ncnc(Nc4ccc(OCc5cccc(F)c5)c(Cl)c4)c3c2)o1 [Lapatinib] (partner 2 µM)
relative viability ([1]; first compound 0.08 µM): 0.952 | relative viability ([1]; first compound 0.253 µM): 0.945 | relative viability ([1]; first compound 0.8 µM): 0.89 | relative viability ([1]; first compound 2.53 µM): 0.917 | relative viability ([1]; first compound 8 µM): 0.909 | relative viability ([2]; first compound 0.08 µM): 1.16 | relative viability ([2]; first compound 0.253 µM): 1.34 | relative viability ([2]; first compound 0.8 µM): 0.83 | relative viability ([2]; first compound 2.53 µM): 0.851 | relative viability ([2]; first compound 8 µM): 0.546 | relative viability ([3]; first compound 0.08 µM): 1.11 | relative viability ([3]; first compound 0.253 µM): 1.19 | relative viability ([3]; first compound 0.8 µM): 1.1 | relative viability ([3]; first compound 2.53 µM): 0.903 | relative viability ([3]; first compound 8 µM): 1.03 | relative viability ([4]; first compound 0.08 µM): 0.951 | relative viability ([4]; first compound 0.253 µM): 1.38 | relative viability ([4]; first compound 0.8 µM): 0.847 | relative viability ([4]; first compound 8 µM): 0.884 | relative viability ([5]; first compound 0.08 µM): 0.673 | relative viability ([5]; first compound 0.253 µM): 0.863 | relative viability ([5]; first compound 0.8 µM): 0.492 | relative viability ([5]; first compound 2.53 µM): 0.604 | relative viability ([5]; first compound 8 µM): 0.765 | relative viability ([6]; first compound 0.08 µM): 0.795 | relative viability ([6]; first compound 0.253 µM): 0.91 | relative viability ([6]; first compound 0.8 µM): 0.843 | relative viability ([6]; first compound 2.53 µM): 0.795 | relative viability ([6]; first compound 8 µM): 0.577 | relative viability ([7]; first compound 0.08 µM): 0.897 | relative viability ([7]; first compound 0.253 µM): 0.85 | relative viability ([7]; first compound 0.8 µM): 0.882 | relative viability ([7]; first compound 2.53 µM): 0.721 | relative viability ([7]; first compound 8 µM): 0.998 | relative viability ([8]; first compound 0.08 µM): 0.757 | relative viability ([8]; first compound 0.253 µM): 0.785 | relative viability ([8]; first compound 0.8 µM): 0.746 | relative viability ([8]; first compound 2.53 µM): 0.754 | relative viability ([8]; first compound 8 µM): 0.712 | relative viability ([9]; first compound 0.08 µM): 0.865 | relative viability ([9]; first compound 0.253 µM): 0.835 | relative viability ([9]; first compound 0.8 µM): 0.675 | relative viability ([9]; first compound 2.53 µM): 0.68 | relative viability ([9]; first compound 8 µM): 0.798 | relative viability ([10]; first compound 0.08 µM): 0.23 | relative viability ([10]; first compound 0.253 µM): 0.235 | relative viability ([10]; first compound 0.8 µM): 0.212 | relative viability ([10]; first compound 2.53 µM): 0.191 | relative viability ([10]; first compound 8 µM): 0.205 | relative viability ([11]; first compound 0.08 µM): 0.839 | relative viability ([11]; first compound 0.253 µM): 1.04 | relative viability ([11]; first compound 0.8 µM): 0.76 | relative viability ([11]; first compound 2.53 µM): 0.879 | relative viability ([11]; first compound 8 µM): 0.895 | relative viability ([12]; first compound 0.08 µM): 1.01 | relative viability ([12]; first compound 0.253 µM): 0.946 | relative viability ([12]; first compound 0.8 µM): 0.958 | relative viability ([12]; first compound 2.53 µM): 0.743 | relative viability ([12]; first compound 8 µM): 1.06 | relative viability ([13]; first compound 0.08 µM): 1.14 | relative viability ([13]; first compound 0.253 µM): 1.14 | relative viability ([13]; first compound 0.8 µM): 1.15 | relative viability ([13]; first compound 2.53 µM): 1.04 | relative viability ([13]; first compound 8 µM): 0.792 | relative viability ([14]; first compound 0.08 µM): 0.881 | relative viability ([14]; first compound 0.253 µM): 1.54 | relative viability ([14]; first compound 0.8 µM): 0.711 | relative viability ([14]; first compound 2.53 µM): 0.841 | relative viability ([14]; first compound 8 µM): 1.22 | relative viability ([15]; first compound 0.08 µM): 1.07 | relative viability ([15]; first compound 0.253 µM): 1.09 | relative viability ([15]; first compound 0.8 µM): 0.955 | relative viability ([15]; first compound 2.53 µM): 0.713 | relative viability ([15]; first compound 8 µM): 0.817 | relative viability ([16]; first compound 0.08 µM): 0.984 | relative viability ([16]; first compound 0.253 µM): 0.88 | relative viability ([16]; first compound 0.8 µM): 0.901 | relative viability ([16]; first compound 2.53 µM): 0.939 | relative viability ([16]; first compound 8 µM): 0.762 | relative viability ([17]; first compound 0.08 µM): 1.04 | relative viability ([17]; first compound 0.253 µM): 1.19 | relative viability ([17]; first compound 0.8 µM): 1 | relative viability ([17]; first compound 8 µM): 0.872 | relative viability ([18]; first compound 0.08 µM): 0.939 | relative viability ([18]; first compound 0.253 µM): 1.08 | relative viability ([18]; first compound 0.8 µM): 0.884 | relative viability ([18]; first compound 2.53 µM): 0.943 | relative viability ([18]; first compound 8 µM): 1.01 | relative viability ([19]; first compound 0.08 µM): 0.299 | relative viability ([19]; first compound 0.253 µM): 0.315 | relative viability ([19]; first compound 0.8 µM): 0.374 | relative viability ([19]; first compound 2.53 µM): 0.309 | relative viability ([19]; first compound 8 µM): 0.414 | relative viability ([20]; first compound 0.08 µM): 0.619 | relative viability ([20]; first compound 0.253 µM): 0.511 | relative viability ([20]; first compound 0.8 µM): 0.646 | relative viability ([20]; first compound 8 µM): 0.825 | relative viability ([21]; first compound 0.08 µM): 1.01 | relative viability ([21]; first compound 0.253 µM): 1.07 | relative viability ([21]; first compound 0.8 µM): 1.02 | relative viability ([21]; first compound 2.53 µM): 0.997 | relative viability ([21]; first compound 8 µM): 1.01 | relative viability ([22]; first compound 0.08 µM): 0.997 | relative viability ([22]; first compound 0.253 µM): 1.11 | relative viability ([22]; first compound 0.8 µM): 0.949 | relative viability ([22]; first compound 2.53 µM): 1.49 | relative viability ([22]; first compound 8 µM): 1.06
